Experimental findings from patent US20220160608A1, “PEPTIDE FOR REDUCING HAIR LOSS AND PROMOTING HAIR GROWTH, AND COSMETIC COMPOSITION AND PHARMACEUTICAL COMPOSITION COMPRISING SAME” (INCOSPHARM CORPORATION, priority 2019, published 2022) are described below.

Assay [1] concerns growth hormones VEGF, IGF-I, FGF10. Nature of the assay: Western blot for expression of hair-related growth hormone proteins in HFDPCs. The conditions noted are these: 10 or 40 μM respectively, 48 hours. In kind it is cell-based, human. A general note: Immunoblotting shows a protein as a band on a membrane.
Description: Specifically, human follicular dermal papilla cells (HFDPCs) were uniformly plated with western blot experimental method at the number of 1×10^5 cells in a 6-well plate and cultured in an incubator in DMEM (Dulbecco's Modified Eagle Media, Gibco BRL) for 24 hours at 37° C. under 5% CO2 conditions. […] Thereafter, 1 ml of each dilution solution was added in each well containing 1 ml of medium, and incubated for 48 hours. After the culture was completed, the medium was removed and the cells were disrupted with SDS sample buffer, followed by separating each protein on SDS-PAGE gel electrophoresis, transferring to a polyvinylidene fluoride (PVDF) membrane, and then removing non-specific binding using a blocking buffer.
For assay [2], the system named is Wnt/β-catenin signaling pathway. The conditions noted are these: HFDPCs; for expression of p-GSK3β protein / expression of β-catenin protein: Western blot, compared to control group not treated with the peptide; for expression of active β-catenin protein, concentration screening: all concentrations from 0.1 μM to 100 μM (SEQ ID NO: 5) or 50 μM (SEQ ID NO: 10), effect not concentration-dependent.
Description: Human follicular dermal papilla cells (HFDPCs) were uniformly plated at the number of 1×10^5 or 5×10^4 cells in a 6-well plate and cultured in an incubator in DMEM (Dulbecco's Modified Eagle Media, Gibco BRL) for 24 hours at 37° C. under 5% CO2 conditions. […] After adding 1 ml of each dilution to each well containing 1 ml of the medium the cells were incubated for a certain period of time. After the culture was completed, the medium was removed, the cells were disrupted with SDS sample buffer. Each protein was separated by SDS-PAGE gel electrophoresis and transferred to a polyvinylidene fluoride (PVDF) membrane, and then non-specific binding was eliminated using a blocking buffer.

A further assay has as its system MMP-2 and ALP. Briefly: RT-PCR for MMP-2 and ALP gene expression in human dermal papilla cells. The conditions noted are these: compared to the control group. In kind it is cell-based. As to the method: (§1) After completion of the culture, the cells were disrupted with Trizol (Ambion), total mRNA was collected with chloroform/isopropanol, and cDNA was synthesized with reverse transcriptase.
RT-PCR (Thermal Cycler, Bio-rad) was performed using primers specific for MMP-2 and ALP, and the amplified product was analyzed by agarose gel electrophoresis, and the results are shown in (a) of FIG. 6.

Assay [3] deals with p21 (cyclin-dependent kinase inhibitor 1a, Cdkn1a). As to conditions: HFDPCs, Western blot, compared to the control group.
Description: Specifically, human follicular dermal papilla cells (HFDPCs) were uniformly plated with western blot experimental method at the number of 1×10^5 cells in a 6-well plate and cultured in an incubator in DMEM (Dulbecco's Modified Eagle Media, Gibco BRL) for 24 hours at 37° C. under 5% CO2 conditions. The peptides of SEQ ID NO: 5 and SEQ ID NO: 10 of the present invention were dissolved in water at a concentration of 10 mM to obtain a concentrate, which was diluted with a medium to an optimal concentration of 10 or 40 μM, respectively. Thereafter, 1 ml of each dilution solution was added in each well containing 1 ml of medium, and incubated for 48 hours. After the culture was completed, the medium was removed and the cells were disrupted with SDS sample buffer, followed by separating each protein on SDS-PAGE gel electrophoresis, transferring to a polyvinylidene fluoride (PVDF) membrane, and then removing non-specific binding using a blocking buffer.
In order to analyze whether p21 may be inhibited by treatment with peptides of SEQ ID NO: 5 and SEQ ID NO: 10, Western blot for an expression of p21 protein was performed.
After transferring to a PVDF membrane (polyvinylidene fluoride), non-specific binding was eliminated using a blocking buffer.
Assay [4] relates to Wnt/β-catenin signaling pathway inhibited by DKK-1. Briefly: Inhibition of DKK-1 activity: reactivation of Wnt/β-catenin signaling inhibited by recombinant DKK-1 (Western blot, HFDPCs). As to conditions: for recovery (increase) of expression level of non-phospho (active) β-catenin: peptide treated simultaneously with recombinant DKK-1.
Description: Specifically, human follicular dermal papilla cells (HFDPCs) were uniformly plated at the number of 5×10^4 cells in a 12-well plate and cultured in an incubator in DMEM (Dulbecco's Modified Eagle Media, Gibco BRL) for 24 hours at 37° C. under 5% CO2 conditions. After culturing, each well was treated with the recombinant protein DKK-1 to inhibit the Wnt/β-catenin signaling pathway, and further treated with the peptides of SEQ ID NO: 5 and SEQ ID NO: 10 of the present invention at appropriate concentrations, followed by culturing for a certain period of time.
After the culture was completed, the medium was removed, the cells were disrupted with SDS sample buffer. Each protein was separated by SDS-PAGE gel electrophoresis and transferred to a PVDF membrane (polyvinylidene fluoride), and then non-specific binding was eliminated using a blocking buffer.
The subject of another assay is human hair follicles. As to conditions: SEQ ID NO: 5 100 μM, SEQ ID NO: 10 16.6 μM; 7 or 10 days culture; compared to IGF-1 (10 ng/ml) or Minoxidil (10 μM) positive control.
The next assay has as its system FGF1 and FGF7. Briefly: RT-PCR for FGF1 and FGF7 gene expression in human dermal papilla cells. In kind it is cell-based. As to conditions: 10 or 40 μM.
Description: as §1

The target in another assay is LRP5 (human, UniProt O75197 32-1615). Briefly: cell-based or functional assay.
Another assay has as its target LRP6 (human, UniProt O75581 20-1613). Nature of the assay: cell-based or functional assay.

Sequence of LRP5 (O75197 32-1615): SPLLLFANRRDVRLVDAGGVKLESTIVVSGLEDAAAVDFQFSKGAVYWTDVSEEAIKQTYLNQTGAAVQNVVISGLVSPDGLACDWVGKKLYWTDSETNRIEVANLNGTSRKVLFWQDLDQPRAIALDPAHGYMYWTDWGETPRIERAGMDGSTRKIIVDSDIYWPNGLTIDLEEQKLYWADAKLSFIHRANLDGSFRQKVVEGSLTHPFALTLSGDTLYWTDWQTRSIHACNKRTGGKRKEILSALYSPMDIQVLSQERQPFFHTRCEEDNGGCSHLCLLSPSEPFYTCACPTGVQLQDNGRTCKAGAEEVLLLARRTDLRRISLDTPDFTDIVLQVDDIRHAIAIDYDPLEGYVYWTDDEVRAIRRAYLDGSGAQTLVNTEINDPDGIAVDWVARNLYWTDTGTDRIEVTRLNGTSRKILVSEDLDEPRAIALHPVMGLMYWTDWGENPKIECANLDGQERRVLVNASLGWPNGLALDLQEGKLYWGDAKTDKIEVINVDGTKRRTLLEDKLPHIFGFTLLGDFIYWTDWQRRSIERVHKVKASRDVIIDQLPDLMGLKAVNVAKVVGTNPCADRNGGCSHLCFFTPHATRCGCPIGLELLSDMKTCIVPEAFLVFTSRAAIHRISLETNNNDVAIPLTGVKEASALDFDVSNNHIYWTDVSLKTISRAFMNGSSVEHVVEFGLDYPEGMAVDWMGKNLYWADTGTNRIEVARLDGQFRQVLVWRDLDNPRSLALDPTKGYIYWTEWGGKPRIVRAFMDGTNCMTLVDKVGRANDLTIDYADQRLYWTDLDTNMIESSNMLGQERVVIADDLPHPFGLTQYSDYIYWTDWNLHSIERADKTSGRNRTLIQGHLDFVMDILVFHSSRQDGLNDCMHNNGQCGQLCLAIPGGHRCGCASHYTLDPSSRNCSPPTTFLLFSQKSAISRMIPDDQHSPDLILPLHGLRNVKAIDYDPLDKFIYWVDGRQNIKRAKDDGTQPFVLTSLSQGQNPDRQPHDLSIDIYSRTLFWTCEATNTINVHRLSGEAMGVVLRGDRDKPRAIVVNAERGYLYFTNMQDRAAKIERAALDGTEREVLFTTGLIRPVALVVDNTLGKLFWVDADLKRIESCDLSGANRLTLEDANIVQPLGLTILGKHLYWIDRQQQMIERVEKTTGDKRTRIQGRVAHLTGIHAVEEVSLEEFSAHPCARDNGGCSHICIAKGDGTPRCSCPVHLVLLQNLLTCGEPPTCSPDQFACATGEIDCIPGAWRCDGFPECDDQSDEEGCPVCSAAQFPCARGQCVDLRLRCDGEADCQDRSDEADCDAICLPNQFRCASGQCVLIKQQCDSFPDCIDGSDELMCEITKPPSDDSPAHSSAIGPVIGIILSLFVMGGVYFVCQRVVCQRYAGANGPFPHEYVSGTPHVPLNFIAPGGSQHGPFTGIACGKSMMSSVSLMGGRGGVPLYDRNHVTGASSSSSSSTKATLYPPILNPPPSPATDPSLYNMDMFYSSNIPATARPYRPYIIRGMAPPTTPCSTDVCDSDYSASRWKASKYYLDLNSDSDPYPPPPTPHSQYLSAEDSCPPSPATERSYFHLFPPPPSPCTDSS
Sequence of LRP6 (O75581 20-1613): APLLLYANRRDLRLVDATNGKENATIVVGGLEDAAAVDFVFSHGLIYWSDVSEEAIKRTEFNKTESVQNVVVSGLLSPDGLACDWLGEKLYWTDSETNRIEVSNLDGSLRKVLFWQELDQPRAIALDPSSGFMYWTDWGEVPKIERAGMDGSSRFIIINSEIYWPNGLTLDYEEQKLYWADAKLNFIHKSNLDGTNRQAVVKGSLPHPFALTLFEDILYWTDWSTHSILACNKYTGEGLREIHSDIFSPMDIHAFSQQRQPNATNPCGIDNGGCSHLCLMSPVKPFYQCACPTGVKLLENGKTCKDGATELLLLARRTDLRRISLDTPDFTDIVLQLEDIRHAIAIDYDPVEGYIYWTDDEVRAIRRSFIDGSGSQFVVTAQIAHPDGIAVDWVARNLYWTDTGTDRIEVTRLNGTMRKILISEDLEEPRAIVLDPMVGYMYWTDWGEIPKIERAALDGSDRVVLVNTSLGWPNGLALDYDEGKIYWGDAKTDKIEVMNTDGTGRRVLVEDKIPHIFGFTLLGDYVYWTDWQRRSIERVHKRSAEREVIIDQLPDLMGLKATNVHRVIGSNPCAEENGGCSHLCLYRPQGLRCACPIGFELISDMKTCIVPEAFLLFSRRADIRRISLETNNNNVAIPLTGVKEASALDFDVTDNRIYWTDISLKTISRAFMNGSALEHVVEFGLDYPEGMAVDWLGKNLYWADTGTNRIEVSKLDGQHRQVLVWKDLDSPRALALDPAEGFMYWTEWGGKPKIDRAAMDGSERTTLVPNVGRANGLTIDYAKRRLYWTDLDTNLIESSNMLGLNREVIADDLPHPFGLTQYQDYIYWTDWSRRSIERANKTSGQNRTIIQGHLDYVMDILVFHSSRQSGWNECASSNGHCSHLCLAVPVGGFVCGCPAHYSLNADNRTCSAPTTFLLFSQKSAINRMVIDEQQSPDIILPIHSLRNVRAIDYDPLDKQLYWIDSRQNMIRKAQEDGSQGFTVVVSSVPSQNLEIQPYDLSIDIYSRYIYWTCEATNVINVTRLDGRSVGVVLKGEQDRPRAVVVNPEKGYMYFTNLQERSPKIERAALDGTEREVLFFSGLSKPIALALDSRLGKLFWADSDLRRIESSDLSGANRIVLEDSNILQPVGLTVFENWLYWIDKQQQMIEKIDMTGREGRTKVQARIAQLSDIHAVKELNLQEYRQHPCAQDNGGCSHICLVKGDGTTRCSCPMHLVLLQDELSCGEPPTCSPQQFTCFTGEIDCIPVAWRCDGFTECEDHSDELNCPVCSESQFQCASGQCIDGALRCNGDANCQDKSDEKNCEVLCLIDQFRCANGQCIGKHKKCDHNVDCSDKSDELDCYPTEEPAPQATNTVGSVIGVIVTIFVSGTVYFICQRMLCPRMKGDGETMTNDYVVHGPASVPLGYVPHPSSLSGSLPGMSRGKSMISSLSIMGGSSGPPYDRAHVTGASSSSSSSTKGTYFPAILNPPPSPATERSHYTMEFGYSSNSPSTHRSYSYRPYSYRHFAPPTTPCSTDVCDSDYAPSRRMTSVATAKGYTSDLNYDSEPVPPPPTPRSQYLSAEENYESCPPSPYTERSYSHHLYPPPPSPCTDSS
Description for human hair follicles: After separating the surrounding tissues, the hair follicles isolated from the human scalp tissues were stored in Earle's balanced salts solution (EBSS; SigmaAldrich). The hair follicles in anagen phase were carefully separated under a microscope and then used in the experiment. The isolated hair follicles were cultured in Williams medium E (Gibco, Grand Island, N.Y., USA) at 37° C., 5% CO2 and 95% air with an addition of 2 mM L-glutamine (Gibco, NY, USA), 10 μg/ml insulin (SigmaAldrich), 10 ng/ml hydrocortisone (SigmaAldrich), 100 Unit/ml penicillin and 100 μg/ml streptomycin. […] At this time, as a positive control group, Minoxidil (10 μM) or IGF-1 (10 ng/ml) was treated.

Consider “serine-cysteine-arginine-isoleucine-glutamine [SEQ ID NO: 5]”, for which, in [1], the “expression of FGF10 protein” value was “increased”, the “expression of IGF-I protein” value is reported as “increased” and the “expression of VEGF protein” value is listed as “increased”. In assay [2], the “expression of p-GSK3β protein” value is listed as “significantly increased”; the “expression of β-catenin protein” value was “significantly increased”; the “expression of active β-catenin protein, concentration screening” value was “increased”. Besides, in the assay on MMP-2 and ALP, the “gene expression of ALP” value is recorded as “increased” and the “gene expression of MMP-2” value is “increased”. The p21 protein expression entry in [3] is “significantly reduced”. In assay [4], the “recovery (increase) of expression level of non-phospho (active) β-catenin” value is given as “about 10%”. Besides, the “hair shaft growth (length of hair shaft)” value with human hair follicles is “superior hair shaft growth”. Also, in the assay on FGF1 and FGF7, the “expression of FGF1 gene” value was “increased” and the “expression of FGF7 gene” value is reported as “increased”.
Turning to “recombinant protein DKK-1 (Dickkopf-1) (from UniProt O94907 32-266) (ligand)”, the expression level of non-phospho(active) β-catenin in HFDPCs (western blot), decrease against untreated control in the assay with LRP5 and with LRP6 was 24% in each case.
On to “arginine-isoleucine-proline [SEQ ID NO: 10]”, for which, in assay [1], the “expression of FGF10 protein” value is reported as “increased”, the “expression of IGF-I protein” value is “increased” and the “expression of VEGF protein” value is “increased”. Further, in assay [2], the “expression of p-GSK3β protein” value is reported as “significantly increased”; the “expression of β-catenin protein” value is “significantly increased”; the “expression of active β-catenin protein, concentration screening” value is recorded as “increased”. Further, in the assay with MMP-2 and ALP, the “gene expression of ALP” value is reported as “increased” and the “gene expression of MMP-2” value is reported as “increased”. Besides, in assay [3], the p21 protein expression entry is “significantly reduced”. Also, the “recovery (increase) of expression level of non-phospho (active) β-catenin” value in assay [4] is about 31%. The “hair shaft growth (length of hair shaft)” value with human hair follicles is given as “superior hair shaft growth”. In addition, in the assay with FGF1 and FGF7, the “expression of FGF1 gene” value is reported as “increased” and the “expression of FGF7 gene” value is reported as “increased”.

B1: peptide of SEQ ID NO: 5 (serine-cysteine-arginine-isoleucine-glutamine, SCRIQ) (peptide)
peptide: SCRIQ
As for B1, the “expression level of non-phospho (active) β-catenin in HFDPCs treated with recombinant DKK-1 (western blot), recovery” value with LRP5 and in the assay with LRP6 was about 10% each time.

B2: DKK-1: recombinant protein, potent antagonist of the Wnt/β-catenin signaling pathway, ligand of LRP5/6 (protein)
chain: TLNSVLNSNAIKNLPPPLGGAAGHPGSAVSAAPGILYPGGNKYQTIDNYQPYPCAEDEECGTDEYCASPTRGGDAGVQICLACRKRRKRCMRHAMCCPGNYCKNGICVSSDQNHFRGEIEETITESFGNDHSTLDGYSRRTTLSSKMYHTKGQEGSVCLRSSDCASGLCCARHFWSKICKPVLKEGQVCTKHRRKGSHGLEIFQRCYCGEGLSCRIQKDHHQASNSSRLHTCQRH
As for B2, the “decrease of expression level of non-phospho(active) β-catenin” value in assay [4] (control group treated with recombinant protein DKK-1) was “about 24%”.

B3: peptide of SEQ ID NO: 10 (arginine-isoleucine-proline, RIP) (peptide)
peptide: RIP
As for B3, the “expression level of non-phospho (active) β-catenin in HFDPCs treated with recombinant DKK-1 (western blot), recovery” value in the assay with LRP5 and with LRP6 was about 31% throughout.
